How the values were obtained:
[1] = system: Horsham soil; assay: Soil microcosm incubation (nitrification of applied ammonium), Horsham soil
Experimental: (§1) The soil used in this study was collected from four different locations in Victoria, Australia: (i) a wheat cropping soil from Horsham (36° 45′S, 142° 07′ E), (ii) a rotational cropping soil from Dahlen (36° 37′S, 142° 09′ E), (iii) a vegetable growing soil from Clyde (38° 08′S, 145° 20′ E), and (iv) a pasture soil from Terang (38° 15′S, 142° 52′E). In addition, a sugarcane cropping soil from South Johnstone in northern Queensland (17° 34′S, 145° 57′ E) was also studied. The water content of the soil was calculated before commencing each experiment, from samples that were oven-dried to constant weight. The soil's water-filled pore space (WFPS) was in the range 52%-61%, which is within the recommended 50-70% range for microbial activity due to oxygen and nutrient availability (Fichtner, T., et al., Applied Sciences, 2019, 9, 496).
(§2) Soil microcosm incubations were carried out in 250 ml polypropylene specimen containers (Sarstedt, Germany), containing 18.24 g oven dry-weight equivalent of soil. Microcosms were re-wetted and pre-incubated at the test temperature for seven days to revive soil microbial activity. Following pre-incubation, the remaining volume to reach the desired water-filled pore spaces (WFPS %) was applied as one of the following treatment solutions; (NH4)2SO4(Control), (NH4)2SO4+DMPP, or (NH4)2SO4+one of Compounds 1-23. Each treatment was applied in triplicate per soil type, so that n=3 at each time point.
(§3) Treatment solutions were prepared such that each microcosm received (NH4)2SO4 at a rate of 100 mg N per kg soil, Compounds 1-23 at 10 mol % of applied N, or DMPP at one of 1.5, 3.6 or 10 mol % of applied N, referred to as L-DMPP, M-DMPP or H-DMPP respectively.
(§4) The microcosms were incubated for 0, 3, 7, 14, 21 or 28 days, where day 0 samples were extracted following 1-hour incubation post-treatment. Soil microcosms were aerated and moisture levels were replenished based on weight loss every few days throughout the incubation period.
(§5) At the end of each incubation period, soil microcosms were destructively sampled by treatment with 2M KCl (100 mL). After shaking for 1 hour, soil-KCl solutions were filtered (Whatman 42) before storing the filtrates at −20° C. until the conclusion of the experiment. All KCl extracts were then analysed by Segmented Flow Analysis (San++, Skalar, Breda, The Netherlands) for the concentration of nitrogen from ammonium (NH4^+—N) and nitrogen from NO3 and NO2 (NOx^−—N) after appropriate dilutions. Results are reported as the mean of three replicates, errors reported are standard errors of the mean.
(§6) Nitrification calculations were performed as previously reported (Aulakh, M., et al., Biology and Fertility of Soils 2001, 33, 258-263; Mahmood, T., et al., Soil Research 2017, 55, 715-722) without correction for the initial baseline concentrations of NH4^+—N or NO3^− N in the untreated soil. For each treatment nitrified NH4^+—N (%) was calculated according to eqn. 1:
(§7) where [NH4^+—N]0 is the NH4^+—N concentration (in mg N kg^−1 soil) of the soil on day 0 and [NH4^+—N]t is the NH4^+—N concentration (in mg N kg^−1 soil) of the soil at a given time point t.
(§8) NOx^−—N accumulation rates (mg NOx^−—N/kg soil/day) over the 28-day incubation experiments were calculated for each treatment as in the following (eqn. 2):
(§9) [NOx^−—N]t=0 and [NOx^−—N]t=28 are the combined concentrations of nitrite (NO2) and nitrate (NO3) in the soil (in mg N kg^−1 soil) on day 0 and day 28, respectively.

[2] = system: South Johnstone soil; assay: Soil microcosm incubation (nitrification of applied ammonium), South Johnstone soil; conditions: South Johnstone soil, 25° C., days 21 and 28
Experimental: as §1, §2, §3, §4, §5, §6, §7

[3] = system: Dahlen soil; assay: Soil microcosm incubation (nitrification of applied ammonium), Dahlen soil; conditions: for Nitrified NH4+—N (%) Day 3 / Nitrified NH4+—N (%) Day 7 / Nitrified NH4+—N (%) Day 14 / Nitrified NH4+—N (%) Day 21 / Nitrified NH4+—N (%) Day 28: 10 mol %; for NOx−—N accumulation rate / NOx−—N accumulation rate: effect of temperature (25° C. vs 35° C.): 28-day incubation
Experimental: as §1, §2, §3, §4, §5, §6, §7, §8, §9

[4] = Horsham soil pH 8.8, 25° C., inhibitors 10 mol % of applied N
[5] = Horsham soil pH 8.8, 25° C., 10 mol %
[6] = Horsham soil pH 8.8, 35° C., 10 mol %
[7] = Dahlen soil, 25° C., Table 5 test
[8] = Table 5 (further comparative test), Dahlen soil pH 7.3, 25° C.
[9] = Table 5, Dahlen soil pH 7.3, 25° C.
[10] = Table 5, Dahlen soil pH 7.3, 35° C.
[11] = Horsham soil, 25° C., after 28 days
[12] = Dahlen soil, 25° C., after 28 days
[13] = Dahlen soil, 35° C., after 28 days
[14] = Table 4, Dahlen soil pH 7.3, 25° C.
[15] = Table 4, Dahlen soil pH 7.3, 35° C.

## CCCCc1cn(CCOC)nn1 [Compound 14, 1-(2-methoxyethyl)-4-butyl-1H-1,2,3-triazole]
[1]; [4]
  Nitrified NH4+—N (%) Day 3: 23.8 ± 3.0%
[1]; [5]
  Nitrified NH4+—N (%) Day 7: 38.7 ± 5.3%
  Nitrified NH4+—N (%) Day 14: 84.3 ± 5.6%
  Nitrified NH4+—N (%) Day 21: 93.4 ± 6.2%
  Nitrified NH4+—N (%) Day 28: 100 ± 3.2%
[1]; [6]
  Nitrified NH4+—N (%) Day 3: 13.2 ± 5.4%
  Nitrified NH4+—N (%) Day 7: 15.7 ± 5.7%
  Nitrified NH4+—N (%) Day 14: 39.8 ± 6.6%
  Nitrified NH4+—N (%) Day 21: 83.5 ± 7.2%
  Nitrified NH4+—N (%) Day 28: 79.7 ± 9.4%
[1]; Horsham soil, 28-day incubation
  NOx−—N accumulation: effect of temperature (25° C. vs 35° C.): lower at the elevated temperature

## CCCc1cn(CC(=O)OCC)nn1 [Compound 19, ethyl 2-(4-propyl-1H-1,2,3-triazol-1-yl)-acetate]
[2]
  effectiveness among the treatments (NH4+—N retention, NOx−—N growth): least effective

## C#CCNC(=O)Cn1cc(CCC)nn1 [Compound 23, prop-2-yn-1-yl 2-(4-propyl-1H-1,2,3-triazol-1-yl)-acetamide]
[3]; [7]
  retaining NH4+—N levels by day 28 vs fertilised control (and DMPP): performed statistically better
[3]; [8]
  Nitrified NH4+—N (%) Day 3: 4.8 ± 2.9%
[3]; [9]
  Nitrified NH4+—N (%) Day 7: 15.7 ± 1.5%
  Nitrified NH4+—N (%) Day 14: 30.3 ± 0.8%
  Nitrified NH4+—N (%) Day 21: 35.9 ± 1.2%
  Nitrified NH4+—N (%) Day 28: 60.5 ± 1.0%
[3]; [10]
  Nitrified NH4+—N (%) Day 3: 15.6 ± 6.4%
  Nitrified NH4+—N (%) Day 7: 8.8 ± 5.6%
  Nitrified NH4+—N (%) Day 14: 24.0 ± 6.7%
  Nitrified NH4+—N (%) Day 21: 41.7 ± 4.7%
  Nitrified NH4+—N (%) Day 28: 64.6 ± 4.9%

## CCCCn1cc(CCC)nn1 [Compound 13, 1-butyl-4-propyl-1H-1,2,3-triazole]
[1]; [4]
  Nitrified NH4+—N (%) Day 3: 17.7 ± 3.9%
[1]; [5]
  Nitrified NH4+—N (%) Day 7: 23.4 ± 5.4%
  Nitrified NH4+—N (%) Day 14: 40.0 ± 4.3%
  Nitrified NH4+—N (%) Day 21: 47.2 ± 4.3%
  Nitrified NH4+—N (%) Day 28: 72.2 ± 4.8%
[1]; [6]
  Nitrified NH4+—N (%) Day 3: 3.5 ± 6.4%
  Nitrified NH4+—N (%) Day 7: 18.7 ± 5.5%
  Nitrified NH4+—N (%) Day 14: 48.0 ± 5.3%
  Nitrified NH4+—N (%) Day 21: 59.3 ± 10.3%
  Nitrified NH4+—N (%) Day 28: 61.2 ± 14.2%
[1]; Horsham soil, 25° C., 28-day incubation
  rate of NOx−—N accumulation: 2.8 mg NOx−—N/kg soil/day
[1]; [11]
  retaining NH4+ vs uninhibited control treatment: performed statistically better
[1]; Horsham soil, 35° C.
  nitrification rates vs uninhibited control treatment: lower nitrification rates than the uninhibited control treatment
  retaining NH4+ and preventing NOx production (statistics vs control): performed statistically better
[1]; Horsham soil, 35° C., 28-day incubation
  rate of NOx−—N accumulation: 2.8 mg NOx−—N/kg soil/day
[1]; Horsham soil, 35° C., after 28 days
  NH4+—N consumption: 61%
[3]; Dahlen soil, 25° C.
  NOx−—N accumulation rate: 2.5 mg NOx−—N/kg soil/day
[3]; [12]
  retaining NH4+—N vs uninhibited control treatment and DMPP: performed statistically better
[3]; Dahlen soil
  NOx−—N accumulation rate: effect of temperature (25° C. vs 35° C.): least affected by the temperature change
[3]; Dahlen soil, 35° C.
  NOx−—N accumulation rate: 2.4 mg NOx−—N/kg soil/day
[3]; [13]
  retaining NH4+ vs both DMPP treatment and control treatment: performed statistically better
[3]; [14]
  Nitrified NH4+—N (%) Day 3: 10.6 ± 3.7%
  Nitrified NH4+—N (%) Day 7: 22.2 ± 50.2%
  Nitrified NH4+—N (%) Day 14: 24.9 ± 59.3%
  Nitrified NH4+—N (%) Day 21: 32.6 ± 2.4%
  Nitrified NH4+—N (%) Day 28: 41.5 ± 1.2%
[3]; [15]
  Nitrified NH4+—N (%) Day 3: −1.2 ± 1.1%
  Nitrified NH4+—N (%) Day 7: 3.5 ± 1.3%
  Nitrified NH4+—N (%) Day 14: 9.2 ± 1.1%
  Nitrified NH4+—N (%) Day 21: 34.2 ± 2.4%
  Nitrified NH4+—N (%) Day 28: 33.6 ± 1.3%

## C#CCCn1cc(CCC)nn1 [Compound 17, 1-(3-butyn-1-yl)-4-propyl-1H-1,2,3-triazole]
[1]; [4]
  Nitrified NH4+—N (%) Day 3: 13.5 ± 4.7%
[1]; [5]
  Nitrified NH4+—N (%) Day 7: 30.6 ± 5.5%
  Nitrified NH4+—N (%) Day 14: 35.1 ± 5.1%
  Nitrified NH4+—N (%) Day 21: 43.9 ± 5.7%
  Nitrified NH4+—N (%) Day 28: 65.8 ± 5.2%
[1]; [6]
  Nitrified NH4+—N (%) Day 3: −0.8 ± 3.4%
  Nitrified NH4+—N (%) Day 7: 8.5 ± 2.8%
  Nitrified NH4+—N (%) Day 14: 37.2 ± 2.3%
  Nitrified NH4+—N (%) Day 21: 75.7 ± 5.4%
  Nitrified NH4+—N (%) Day 28: 76.2 ± 2.1%
[1]; [11]
  retaining NH4+ vs uninhibited control treatment: performed statistically better
[1]; Horsham soil, 35° C.
  nitrification rates vs uninhibited control treatment: lower nitrification rates than the uninhibited control treatment
[3]; Dahlen soil, 25° C.
  NOx−—N accumulation rate: 4.7 mg NOx−—N/kg soil/day
[3]; [12]
  retaining NH4+—N vs uninhibited control treatment and DMPP: performed statistically better
[3]; Dahlen soil
  NOx−—N accumulation rate: effect of temperature (25° C. vs 35° C.): largest reduction in the accumulation rate
[3]; Dahlen soil, 35° C.
  NOx−—N accumulation rate: 2.4 mg NOx−—N/kg soil/day
[3]; [13]
  ammonia consumption: 38%
  retaining NH4+ vs both DMPP treatment and control treatment: performed statistically better
[3]; [14]
  Nitrified NH4+—N (%) Day 3: 3.0 ± 1.3%
  Nitrified NH4+—N (%) Day 7: 10.4 ± 3.6%
  Nitrified NH4+—N (%) Day 14: 12.1 ± 3.2%
  Nitrified NH4+—N (%) Day 21: 22.2 ± 5.0%
  Nitrified NH4+—N (%) Day 28: 36.4 ± 6.8%
[3]; [15]
  Nitrified NH4+—N (%) Day 3: 6.3 ± 2.2%
  Nitrified NH4+—N (%) Day 7: 8.8 ± 1.9%
  Nitrified NH4+—N (%) Day 14: 17.7 ± 2.6%
  Nitrified NH4+—N (%) Day 21: 38.0 ± 2.8%
  Nitrified NH4+—N (%) Day 28: 37.6 ± 3.1%

## C=CCOC(=O)Cn1cc(CCC)nn1 [Compound 20, prop-2-en-1-yl 2-(4-propyl-1H-1,2,3-triazol-1-yl)-acetate]
[3]; [7]
  retaining NH4+—N levels by day 28 vs fertilised control (and DMPP): performed statistically better than the fertilised control
[3]; Dahlen soil, 35° C., Table 5 test
  retaining NH4+—N vs (NH4)2SO4-treated control by day 28: remain highly effective
[3]; [8]
  Nitrified NH4+—N (%) Day 3: 1.9 ± 1.3%
[3]; [9]
  Nitrified NH4+—N (%) Day 7: 8.0 ± 0.6%
  Nitrified NH4+—N (%) Day 14: 15.2 ± 1.2%
  Nitrified NH4+—N (%) Day 21: 26.0 ± 2.1%
  Nitrified NH4+—N (%) Day 28: 31.8 ± 4.5%
[3]; [10]
  Nitrified NH4+—N (%) Day 3: 16.6 ± 4.5%
  Nitrified NH4+—N (%) Day 7: 5.0 ± 4.3%
  Nitrified NH4+—N (%) Day 14: 17.7 ± 3.8%
  Nitrified NH4+—N (%) Day 21: 17.1 ± 3.6%
  Nitrified NH4+—N (%) Day 28: 45.6 ± 8.3%
